From US20110060000A1, “ACRIDINE ANALOGS IN THE TREATMENT OF GLIOMAS” (priority 2009, published 2011)
Entries after “also recorded” stand apart in the source; their conditions may differ. Like-named read-outs stand apart in the source and are kept apart here.

What was measured:
GRP78 promoter = assay: GRP78-luc reporter assay in stably transfected U87-MG clone A5; assay type: cell-based, human; conditions: for GRP78 promoter driven luciferase (GRP78-luc) expression: result in words
Protocol: The promoter region contains the sequence of the GRP78 promoter from −139 to +7. In this part of the promoter there are three ER stress responsive elements and the TATA box to which is linked in frame the firefly luciferase sequence.
Compounds were plated in half area 96 well plates at the final concentration of 2 μM in 5 μl of media. Cells were added in 45 μl afterwards at the density of 5000/well. Plates were read after 16 h in an Envision high efficiency plate reader. Results are represented as a plate layout in which different shadings indicate the different rows and the number indicate the different lines. As a standard negative and positive controls were located in the outer columns.
A construct coding a large part of the human GRP78 promoter, attached to the reporter gene firefly luciferase was used (see FIG. 16 for a schematic) (Yoshida et al., 1998).
The promoter region contains the sequence of the GRP78 promoter from −139 to +7. In this part of the promoter there are three ER stress responsive elements and the TATA box to which is linked in frame the firefly luciferase sequence (FIG. 16)(Yoshida et al., 1998). The construct, which was cloned in an expression vector, was transfected into E. Coli, amplified, purified and checked it by enzymatic digestion. Thereafter, C6 and U87-MG were transiently transfected with the plasmid. After 24 hours the cells were challenged with THAP and TUN for 24 hours. Although, in transient transfection only a small part of the cell population expresses the transduced gene, a significant induction by THAP and TUN was detected over 24 hours. Armed with these encouraging data human glioma cells U87-MG were transfected with both the above described construct and a construct carrying resistance to blasticidin. The sensitivity of these cells to the antibiotic has previously been assessed. 24 hours after the transfection the antibiotic at its 75% inhibitory concentration was added. The cells were given time to proliferate. Two pools called P2 and P5 were selected and luciferase expression was assessed. […] Clones from these two pools were isolated. Luciferase expression in the clones was characterized and a clone called A5, in which baseline expression of the construct was reasonably low and induction with two positive controls was large and consistent, was selected. This clone, several back up clones, and the pools were amplified and frozen in sufficient amounts to guarantee continuity in case needed. Next, the effect of the incubation time on luciferase induction was assessed. Since this assay can be affected by false negative due to toxicity of hit compounds, the incubation times were kept as short as possible. Therefore, several incubation times were tested, including 8, 16 and 24 h. The goal was not to incubate longer than 24 hours because toxicity starts to develop at that time point. […] At this time point the induction is about 6-7 fold. Previously, using a different assay, a half a million compound library was screened very easily using 2.5 thousands cells per well in 1536 plates. […] With this cell number the dynamic range is large and the fold of induction of 6-7 is maintained.
It is common practice in the field of high throughput screening to assess the so called z number of the assay. This statistical parameter indicates the suitability of a given assay for high throughput screening. The z-value in a word describes the likelihood of a single point hit not to be false positive. The z value is a number lower than or equal to one. Values above 0.5 indicate a robust assay. Values below 0.5 but above 0 indicate an assay that probably needs to be run in duplicate. Negative values indicate assays whose predictability is very low. Z values are usually determined in a high density format plate usually a 96 well plate in manual conditions or a 384-1536 plate format in automated liquid handling environment. Z value determination has been performed using half area 96 well plates in manual mode. […]

C6 cells = assay: Cell viability / gliotoxicity in C6; assay type: cell-based; conditions: for C6 death relative to astrocytes: cytoplasmic exosaminidase; for inhibition of XTT conversion compared with astrocytes: C6, 24 hours of treatment
Protocol: (§1) Cells were treated for 48 hours accordingly to axis labels. At the end of the incubation time cells were prepared for the assay according to the manufacturer instructions. Luminescence values were then converted to % of survival.
(§2) Cells were treated for 48 h with the indicated concentrations of the agents. Astrocytes death was limited to 30% or lower. Suprisingly, C6 death was 3 folds higher than in astrocytes at 24 h and increased at 5 folds at 48 h. Data in U78-MG are similar to the C6 data although the effect was slightly lower but always at least 2 to 4 folds the effect seen in astrocytes.
(§3) In order to verify how the hypersensitivity of this signaling pathway in glioma cells affects the survival of the cells, viability assessments were performed using at least three unrelated biochemical tests. Initially, a commercially available kit (Cell Titer Glow) was used in the high throughput screening center for cytotoxicity screening. This test is amenable to high throughput screening techniques and, therefore, can be used for follow up of selected compounds in high or medium throughput settings. […] Since, THAP inhibits SERCA, an ATPase, and it can affect ATP levels directly the effect of THAP and TUN on these 3 cells types was also assessed using a commercially available kit that assesses metatetrazolium salts conversion (XTT). XTT assesses cell viability by probing mitochondrial integrity. […] Finally, viability of U87-MG was also assessed using a system measuring the activity of a house keeping cytosolic enzyme involved in glucose metabolism. Also using this detection system it was evident that glioma cells both C6 and U87-MG were greatly affected by induction of ERSR (FIG. 13). It is well known that prolonged ERSR leads to apoptosis, even in the presence of elevated GRP78 expression if that is coupled to significant protein unfolding. In rat cells this process is actuated via caspase 12 and ultimately via caspase 3 activation. Experiments were conducted in order to determine if the observed effect on cell viability was also paralleled by caspase 12 activation, and if there were differences, as indicated by preliminary viability data, between normal and glioma cells.

U87-MG cells = assay: Cell viability / gliotoxicity in U87-MG; assay type: cell-based
Protocol: as §1, §2
as §3, with “Experiments were conducted in order to determine if the observed effect on cell viability was also paralleled by caspase 12 activation, and if there were differences, as indicated by preliminary viability data, between normal and glioma cells.” left out

[1] = same concentration range as GRP78-luc increase

| Compound | concentration up to which GRP78-luc expression increased, after which the toxic effect was preponderant (GRP78 promoter) | hit in Prestwick library screening (value above average of negative controls + 3 SD) (GRP78 promoter; 2 μM, 5000 cells/well, read after 16 h) | gliotoxicity in C6 (C6 cells; [1]) | gliotoxicity in U87-MG (U87-MG cells; [1]) | GRP78 promoter driven luciferase (GRP78-luc) expression (GRP78 promoter) | cytotoxicity compared with astrocytes (Cell Titer Glow, ATP content) (C6 cells) | C6 death relative to astrocytes (C6 cells; 24 h) | C6 death relative to astrocytes (C6 cells; 48 h) | inhibition of XTT conversion compared with astrocytes (C6 cells) | cytotoxicity compared with astrocytes (Cell Titer Glow, ATP content) (U87-MG cells) | cytotoxicity compared with astrocytes (Cell Titer Glow, ATP content) (C6 cells; C6, 48 hours) | cytotoxicity compared with astrocytes (Cell Titer Glow, ATP content) (U87-MG cells; U87-MG, 48 hours) |
| --- | --- | --- | --- | --- | --- | --- | --- | --- | --- | --- | --- | --- |
| CCN(CC)CCCC(C)Nc1c2ccc(Cl)cc2nc2ccc(OC)cc12 (stereo not shown) [quinacrine] | up to 10 μM | potentially attractive lead compounds | killed very effectively | killed very effectively |  |  |  |  |  |  |  |  |
| C/C=C(/C)C(=O)O[C@H]1C(C)=C2[C@H]([C@@H]1OC(=O)CCCCCCC)[C@@](C)(OC(C)=O)C[C@H](OC(=O)CCC)[C@@]1(O)[C@H]2OC(=O)[C@@]1(C)O [THAP, thapsigargin] |  |  |  |  | increase of luciferase expression; also recorded: concentration dependent increase | significantly higher cytotoxicity | 3 folds | 5 folds | significantly higher inhibition of XTT conversion than astrocytes | significantly higher cytotoxicity |  |  |
| tunicamycin |  |  |  |  | increase of luciferase expression; also recorded: concentration dependent increase |  | 3 folds | 5 folds | significantly higher inhibition of XTT conversion than astrocytes |  | significantly higher cytotoxicity | significantly higher cytotoxicity |
